Results: US20060269938A1, “Polynucleotides encoding insect plasma membrane ca2+ ATPase and uses thereof” (priority 2005, published 2006)

What was measured:
PMCA = test: pyruvate kinase/lactate dehydrogenase-coupled assay that measures ADP formation; format: biochemical, Heliothis virescens; conditions: fit to simple hyperbolic equation; decrease in absorbance at 340 nm; PMCA 0.20 mg/mL; FIG. 3; read-out: K1/2 for ATP, PMCA reaction rate
Method: The PMCA reaction rate is dependent on the ATP concentration. The K1/2 for ATP was measured using a pyruvate kinase/lactate dehydrogenase-coupled assay that measures ADP formation. The final concentrations of PMCA and ATP were […]. The rates of decrease in absorbance at 340 nm were measured for each concentration of ATP. The line gives the fit to a simple hyperbolic equation with K1/2=0.013 mM and amplitude=0.022 OD/min. Vmax =50.0 nmol.min^−1.mg^−1. was obtained for PMCA activity under the conditions described.

[1] = tested on: recombinant Heliothis virescens PMCA; test: PMCA activity assay, luciferase-luciferin luminescence measurement of remaining ATP; format: biochemical
Method: The assay for PMCA is based on the use of the luciferase-luciferin luminescence reaction to measure ATP. PMCA hydrolyzes ATP in the presence of Ca^2+and the ATP that remains is measured. Membrane vesicles from Sf9 cells expressing recombinant Heliothis virescens PMCA are provided with the assay.
The assay protocol is designed for a 384-well microtiter plate format, but other multi-well formats or other formats may also be used. The reaction is started by the addition of the PMCA enzyme. The negative control reactions contain eosin, an inhibitor of PMCA. Reaction mixtures are incubated at room temperature (22-24° C.) for 60 minutes, followed by the addition of the luciferase-luciferin mix. The plates are immediately read for luminescence.
The luciferin-luciferase readout measures the concentration of ATP in reaction mixtures. Light emission by the luciferase is proportional to the concentration of ATP when its value is less than 0.010 mM. PMCA consumes ATP in a Ca^2+-dependent hydrolysis reaction. […]
A volume of 0.005 mL of the HI solution increasing concentrations of eosin was placed in the wells of a 384-well microtiter plate, and a volume of 0.020 mL of the H2 solution was added. […] A volume of 0.035 mL of the H4 reaction mixture was then added to each well of the plate and the luminescence was measured. The decrease in relative light units (RLU) in reaction time t=60 minutes was measured. […]

Work on Nc1ncnc2c1ncn2[C@@H]1O[C@H](COP(=O)(O)OP(=O)(O)OP(=O)(O)O)[C@@H](O)[C@H]1O [ATP] yielded a Km (PMCA) of 13 µM.

With [Ca+2] [Ca^2+] the “K1/2 for Ca2+, PMCA reaction rate” value ([1]; fit to simple hyperbolic equation, rates of decrease in RLU, ATP 0.010 mM, PMCA 0.010 mg/mL, FIG. 4) was 1.5 µM.

With O=C1OC2(c3ccccc31)c1cc(Br)c(O)c(Br)c1Oc1c2cc(Br)c(O)c1Br [eosin, reference compound] the IC50 ([1]; membrane vesicles from Sf9 cells, room temperature (22-24° C.), 60 minutes, FIG. 5, read-out: IC50 of inhibition of PMCA activity (rates of ATP consumption)) was 12 nM.
